Test results from patent publication US11198677B2, “Deoxyuridine triphosphatase inhibitors containing amino sulfonyl linkage” (University of Southern California, priority 2015, dated 2021).

Legend:
[1] = system: colorectal (HCT116 and SW620) cell line models; assay: MTS growth inhibition assay; assay type: cell-based; details: increasing concentrations between 0 and 100 μmol/L; both colorectal cancer cell lines evaluated
Experimental: The Cell Titer AQueous MTS assay (Promega) is carried out according to the manufacturers guidelines. […] The combination effect is determined by the combination index (CI) method utilizing Calcusyn software (Biosoft, Ferguson, Mo.). Fraction affected (FA) is calculated from the percent growth inhibition: FA=[…]. CI values <1, synergism; 1-1.2, additive and >1.2, antagonism.
Test compounds are evaluated for their antitumor activity in colorectal cancer cells using the MTS growth inhibition assay. HCT116 and SW620 cells are exposed to increasing concentrations of each agent for 72 hours and growth inhibition is directly compared to vehicle-treated controls. The NSCLC cell lines A549 and H1299 are exposed to increasing concentrations of each agent for 72 hours and growth inhibition is directly compared to vehicle-treated controls.
MTS growth inhibition assays are performed to evaluate the effectiveness of the test compounds alone and in combination with the fluoropyrimidine thymidylate synthase (TS) inhibitor 5-fluorouracil (5-FU) at inhibiting the growth of colorectal (HCT116 and SW620) cell line models. […] Simultaneous treatment with increasing concentrations of 5-FU and a test compound at fixed concentrations of 25 μmol/L is determined.

[2] = system: colorectal (HCT116), breast (MCF-7) and non-small cell lung (H1299, A549, H358 and H460) cell line models; assay: Colony forming assay; assay type: cell-based; details: increasing concentrations between 0.5 and 2.5 μmol/L; all cell lines evaluated
Experimental: Colony forming assay showing the ability of colon (SW620, HCT116), non-small cell lung (A549, H460, H1299 and H358) and breast (MCF7) cancer cells to survive and proliferate following transient 24 hour exposure to test compounds, FUdR and combinations are determined. Specifically, cells are seeded at densities between 50 and 100 cells/well in 24-well plates. Twenty-four hours later, cells are treated with increasing concentrations of a test compound, a fixed dose of FUdR and combinations of these. After 24 hours, drug is removed, cells are rinsed and allowed to outgrow for 10-14 days. At the conclusion of the outgrowth, cells are fixed in 60% ice cold methanol and stained with 0.1% crystal violet, scanned and counted. Data is presented as percentage of untreated controls (mean±SD). Fraction affected and combination indexes are calculated according to the method of Chou and Talalay where <1 is indicative of a synergistic drug interaction.
Colony forming assays are performed to evaluate the effectiveness of test compounds alone and in combination with the fluoropyrimidine thymidylate synthase (TS) inhibitor fluorodeoxyuridine (FUdR) at reducing cancer cell viability in colorectal (HCT116), breast (MCF-7) and non-small cell lung (H1299, A549, H358 and H460) cell line models. […]

SMILES	growth inhibition [1]	colonies formed [2]
O=c1[nH]cc(F)c(=O)[nH]1 [Compound 5-FU, 5-fluorouracil]	dose-dependent increases in growth inhibition	–
O=c1[nH]c(=O)n([C@H]2C[C@H](O)[C@@H](CO)O2)cc1F [FUdR, fluorodeoxyuridine]	–	dose-dependent decreases in colonies formed
